A short description of data set [1]: Solubility test by UV-Vis spectroscopy of saturated solutions. The format is physicochemical. The settings on record: solvent DMSO.
Assay in data set [2]: as above
The format is physicochemical. The settings on record: saturated solution; for solubility: thermodynamic from solid. The protocol:
All UV-Vis measurements were carried out with an Agilent Cary 60 UV-Vis 2.00 between 800-200 nm. The absorbance was measured with a scan rate of 300.0 nm/min, a data interval of 0.50 nm and an UV-Vis Average Time of 0.10 s. For all measurements a cuvette with 10 mm light path was used. A calibration curve was plotted from several different concentrations and the solubility of the respective compound was determined by measuring the absorbance of a diluted saturated solution. As a blank curve a mixture of ultrapure water and ethanol in a ratio of 1:1 or 5:95 was recorded. For the calibration curve a 100 μM or a 10 μM solution of the compound in an ultrapure water:ethanol (1:1) or (5:95)-mixture was prepared and diluted to obtain at least 6 concentrations. […] The supernatant was taken using a syringe and filtered through a syringe filter (RC Membrane). The saturated solution was diluted with ultrapure water and ethanol to obtain an appropriate concentration in a water:ethanol (1:1) or (5:95)-mixture. The long wave absorbance maximum was used for determination of the solubility (mean values, determination in triplicate). […] By plotting the concentration of the solution against the absorbance values at the previously determined wavelength maximum a calibration curve was obtained (FIG. 1B).

In data set [3] the target is T1, human FLT3-ITD (Homo sapiens, UniProt P36888).
T1 sequence (P36888 1-993): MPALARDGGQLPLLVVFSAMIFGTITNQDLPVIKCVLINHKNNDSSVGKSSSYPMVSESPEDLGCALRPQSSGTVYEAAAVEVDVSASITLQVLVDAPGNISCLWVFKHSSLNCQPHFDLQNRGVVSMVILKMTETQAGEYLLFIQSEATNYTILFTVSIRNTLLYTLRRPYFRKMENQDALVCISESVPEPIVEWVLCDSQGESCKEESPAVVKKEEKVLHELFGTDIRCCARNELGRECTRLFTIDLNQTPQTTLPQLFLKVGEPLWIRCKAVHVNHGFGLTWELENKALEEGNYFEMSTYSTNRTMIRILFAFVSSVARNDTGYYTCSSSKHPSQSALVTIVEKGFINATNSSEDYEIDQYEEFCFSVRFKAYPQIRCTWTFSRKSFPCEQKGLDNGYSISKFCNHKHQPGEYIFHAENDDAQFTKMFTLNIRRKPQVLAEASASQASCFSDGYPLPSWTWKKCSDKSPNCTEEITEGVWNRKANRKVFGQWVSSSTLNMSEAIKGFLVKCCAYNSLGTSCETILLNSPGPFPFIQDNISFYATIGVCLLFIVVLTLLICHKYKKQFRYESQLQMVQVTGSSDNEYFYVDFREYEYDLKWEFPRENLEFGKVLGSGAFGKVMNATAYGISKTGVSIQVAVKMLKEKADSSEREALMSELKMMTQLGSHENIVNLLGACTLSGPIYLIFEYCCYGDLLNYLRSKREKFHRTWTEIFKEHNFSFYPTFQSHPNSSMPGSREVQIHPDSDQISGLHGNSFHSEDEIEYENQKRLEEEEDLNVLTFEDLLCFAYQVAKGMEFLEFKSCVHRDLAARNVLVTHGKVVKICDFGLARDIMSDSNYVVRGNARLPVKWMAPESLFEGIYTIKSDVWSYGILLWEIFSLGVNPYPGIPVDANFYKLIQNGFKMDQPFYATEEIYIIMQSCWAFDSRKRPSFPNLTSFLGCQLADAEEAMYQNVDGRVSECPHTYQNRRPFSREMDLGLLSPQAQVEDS
The experiment in a line: Enzymatic kinase assay FLT3 (ITD), 10-dose IC50 mode (Reaction Biology). The format is biochemical.

Data set [4] concerns subcutaneous MV4-11 CDX model. The experiment in a line: In vivo efficacy study in subcutaneous MV4-11 CDX model in NOD/SCID mice. The settings on record: 50 mg/kg po daily 5 days.
The mark [5] stands for this setting: ethanol, organic solvent or mixture, ethanol, read-out: Solubility Ethanol.
The mark [6] stands for this setting: ultrapure water, water, ultrapure water, read-out: Solubility Water.
[7] abbreviates: 10 μM ATP; read-out: IC50 FLT3 (ITD).
The mark [8] stands for this setting: ethanol, 2,2,2-trifluoroacetate.
Where [9] appears, read: read-out: IC50 FLT3 (ITD); 10 μM ATP.

In brackets after ≈: the same amount, converted by molar mass. Structures can show the parent of a compound that is named as a salt. Where two headings read alike, the source gives them in different places.

One may read the solubility as how much of the substance goes into solution per volume. What is called IC50 is the concentration that gives 50% inhibition.

On to `CC(C)(C)c1cc(NC(=O)Nc2ccc3oc(C(=O)c4cc5c(CN6CCOCC6)c(O)ccc5[nH]4)cc3c2)no1` [Compound 30b, 1-(5-(tert-Butyl)isoxazol-3-yl)-3-(2-(5-hydroxy-4-(morpholinomethyl)-1H-indole-2-carbonyl)benzofuran-5-yl)urea 2,2,2-trifluoroacetate], for which the “Solubility DMSO” value in data set [1] is recorded as “Soluble”. In addition, the solubility in data set [2] (setting [5]) worked out at 2570 µg/mL (≈ 4610 µM); in data set [2] (setting [6]), 140 µg/mL (≈ 251 µM).

`CC(C)(C)c1cc(NC(=O)Nc2ccc3oc(C(=O)c4cc5c(CN6CCOCC6)c(O)ccc5[nH]4)cc3c2)no1` [Compound 30c, 1-(5-(tert-Butyl)isoxazol-3-yl)-3-(2-(5-hydroxy-4-(morpholinomethyl)-1H-indole-2-carbonyl)benzofuran-5-yl)urea hydrochloride]: the IC50 in data set [3] (setting [7]) was found to be 2 nM.

For `CC(C)(C)c1cc(NC(=O)Nc2ccc3oc(C(=O)c4cc5c(CN6CCCCC6)c(O)ccc5[nH]4)cc3c2)no1` [Compound 31a, 1-(5-(tert-Butyl)isoxazol-3-yl)-3-(2-(5-hydroxy-4-(piperidin-1-ylmethyl)-1H-indole-2-carbonyl)benzofuran-5-yl)urea], the “Solubility DMSO” value in data set [1] is given as “Soluble”. Further, the solubility in data set [2] (setting [5]) was 2200 µg/mL (≈ 3960 µM); in data set [2] (setting [6]) it was under 100 µg/mL.

For `CC(C)(C)c1cc(NC(=O)Nc2ccc3oc(C(=O)c4cc5c(CN6CCCCC6)c(O)ccc5[nH]4)cc3c2)no1` [Compound 31b, 1-(5-(tert-Butyl)isoxazol-3-yl)-3-(2-(5-hydroxy-4-(piperidin-1-ylmethyl)-1H-indole-2-carbonyl)benzofuran-5-yl)urea 2,2,2-trifluoroacetate], in data set [2] (setting [8]), the “Solubility Ethanol” value amounted to 1.89 g/L (≈ 3400 µM).

With `CC(C)(C)c1cc(NC(=O)Nc2ccc3oc(C(=O)c4cc5c(CN6CCCC6)c(O)ccc5[nH]4)cc3c2)no1` [Compound 32a, 1-(5-(tert-Butyl)isoxazol-3-yl)-3-(2-(5-hydroxy-4-(pyrrolidin-1-ylmethyl)-1H-indole-2-carbonyl)benzofuran-5-yl)urea], in data set [1], the “Solubility DMSO” value is “Soluble”. Moreover, the “Solubility Ethanol” value in data set [2] (ethanol) is given as 0.91 g/L (≈ 1680 µM). In data set [2] (setting [6]), the solubility is under 100 µg/mL.

For `CC(C)(C)c1cc(NC(=O)Nc2ccc3oc(C(=O)c4cc5c(CN6CCCC6)c(O)ccc5[nH]4)cc3c2)no1` [Compound 32b, 1-(5-(tert-Butyl)isoxazol-3-yl)-3-(2-(5-hydroxy-4-(pyrrolidin-1-ylmethyl)-1H-indole-2-carbonyl)benzofuran-5-yl)urea 2,2,2-trifluoroacetate], the “Solubility Ethanol” value in data set [2] (setting [8]) amounted to 2.40 g/L (≈ 4430 µM).

For the compound `CN(C)Cc1c(O)ccc2[nH]c(C(=O)c3cc4cc(NC(=O)Nc5cc(C(C)(C)C)on5)ccc4o3)cc12` [Compound 34a, 1-(5-tert-Butylisoxazol-3-yl)-3-(2-(4-((dimethylamino)methyl)-5-hydroxy-1H-indole-2-carbonyl)benzofuran-5-yl)urea], in data set [3] (setting [7]), the IC50 is 1.51 nM.

Take `CC(C)(C)c1cc(NC(=O)Nc2ccc3oc(C(=O)c4cc5c(CN6CCOCC6)c(OC(=O)N6CCC(N7CCCCC7)CC6)ccc5[nH]4)cc3c2)no1` [Compound 38a, 2-(5-(3-(5-(tert-Butyl)isoxazol-3-yl)ureido)benzofuran-2-carbonyl)-4-(morpholinomethyl)-1H-indol-5-yl[1,4′-bipiperidine]-1′-carboxylate]: the solubility in data set [2] (setting [5]) is 890 µg/mL (≈ 1180 µM); in data set [2] (setting [6]), under 100 µg/mL.

On to `CC(C)(C)c1cc(NC(=O)Nc2ccc3oc(C(=O)c4cc5c(CN6CCOCC6)c(OC(=O)N6CCC(N7CCCCC7)CC6)ccc5[nH]4)cc3c2)no1` [Compound 38c, 2-(5-(3-(5-(tert-Butyl)isoxazol-3-yl)ureido)benzofuran-2-carbonyl)-4-(morpholinomethyl)-1H-indol-5-yl [1,4′-bipiperidine]-1′-carboxylate Dihydrochloride], for which the IC50 in data set [3] (read-out: IC50 FLT3 (ITD); 10 μM ATP; Dihydrochloride) was determined as 1.51 nM.

Consider `CC(C)(C)c1cc(NC(=O)Nc2ccc3oc(C(=O)c4cc5c(CN6CCCCC6)c(OC(=O)N6CCC(N7CCCCC7)CC6)ccc5[nH]4)cc3c2)no1` [Compound 39a, 2-(5-(3-(5-(tert-Butyl)isoxazol-3-yl)ureido)benzofuran-2-carbonyl)-4-(piperidin-1-ylmethyl)-1H-indol-5-yl [1,4′-bipiperidine]-1′-carboxylate], for which the IC50 in data set [3] (setting [9]) came out at 1.14 nM. For the same compound, the solubility in data set [2] (setting [5]) was 1590 µg/mL (≈ 2120 µM); in data set [2] (setting [6]), under 100 µg/mL.

For the compound `CC(C)(C)c1cc(NC(=O)Nc2ccc3oc(C(=O)c4cc5c(CN6CCCC6)c(OC(=O)N6CCC(N7CCCCC7)CC6)ccc5[nH]4)cc3c2)no1` [Compound 40a, 2-(5-(3-(5-(tert-Butyl)isoxazol-3-yl)ureido)benzofuran-2-carbonyl)-4-(pyrrolidin-1-ylmethyl)-1H-indol-5-yl [1,4′-bipiperidine]-1′-carboxylate], in data set [3] (setting [9]), the half-maximal inhibitory concentration (IC50) came out at 1.15 nM. Moreover, the figures for the solubility in data set [2] (setting [5]) and in data set [2] (setting [6]) were 1240 µg/mL (≈ 1690 µM) and under 100 µg/mL, respectively.

As for `CN1CCN(Cc2c(OC(=O)N3CCC(N4CCCCC4)CC3)ccc3[nH]c(C(=O)c4cc5cc(NC(=O)Nc6cc(C(C)(C)C)on6)ccc5o4)cc23)CC1` [Compound 41c, 2-(5-(3-(5-(tert-Butyl)isoxazol-3-yl)ureido)benzofuran-2-carbonyl)-4-((4-methylpiperazin-1-yl)methyl)-1H-indol-5-yl [1,4′-bipiperidine]-1′-carboxylate Trihydrochloride], in data set [3] (read-out: IC50 FLT3 (ITD); 10 μM ATP; Trihydrochloride), the IC50 was 0.5 nM.

As to `CN(C)Cc1c(OC(=O)N2CCC(N3CCCCC3)CC2)ccc2[nH]c(C(=O)c3cc4cc(NC(=O)Nc5cc(C(C)(C)C)on5)ccc4o3)cc12` [Compound 42a, 2-(5-(3-(5-(tert-Butyl)isoxazol-3-yl)ureido)benzofuran-2-carbonyl)-4-((dimethylamino)methyl)-1H-indol-5-yl [1,4′-bipiperidine]-1′-carboxylate], the IC50 in data set [3] (setting [9]) was 1.23 nM.

As to `CC(C)(C)OC(=O)N1CCN(Cc2c(O)ccc3[nH]c(C(=O)c4cc5cc(NC(=O)Nc6cc(C(C)(C)C)on6)ccc5o4)cc23)CC1` [Compound 54a], in data set [1], the “Solubility DMSO” value is “Soluble”. Also, the solubility in data set [2] (setting [5]) was 900 µg/mL (≈ 1370 µM); in data set [2] (setting [6]), under 100 µg/mL.

As for `CC(C)N1CCN(Cc2c(O)ccc3[nH]c(C(=O)c4cc5cc(NC(=O)Nc6cc(C(C)(C)C)on6)ccc5o4)cc23)CC1` [Compound 70b, 1-(5-(tert-Butyl)isoxazol-3-yl)-3-(2-(5-hydroxy-4-((4-isopropylpiperazin-1-yl)methyl)-1H-indole-2-carbonyl)benzofuran-5-yl)urea bis(2,2,2-trifluoroacetate)], the “Solubility Ethanol” value in data set [2] (ethanol, bis(2,2,2-trifluoroacetate)) is reported as 1.82 g/L (≈ 3040 µM). In addition, in data set [2] (ultrapure water, bis(2,2,2-trifluoroacetate)), the “Solubility Water” value turned out to be 0.37 g/L (≈ 618 µM).

Turning to `CO[C@@H]1[C@H](N(C)C(=O)c2ccccc2)C[C@H]2O[C@]1(C)n1c3ccccc3c3c4c(c5c6ccccc6n2c5c31)C(=O)NC4` [Midostaurin, reference compound], in data set [4], the “first death(s) (day of study)” value was 520000 s and the “second death (day of study)” value is 9 days. In data set [4] (5 mice), the “number of living subjects, day of study 5” value worked out at 5; the “number of living subjects, day of study 6” value came to 4; the “number of living subjects, day of study 8” value is on record as 4; the “number of living subjects, day of study 13” value was 3. Besides, in data set [4] (5 mice), the “number of living subjects, day of study 26” value came to 3 and the “number of living subjects, day of study 36” value turned out to be 0.
